Data reported in patent publication US20130344053A1, “Methods of Modifying Insulin Signaling Using Biliverdin Reductase (BVR) and BVR Derived Peptides” (University of Rochester, priority 2010, published 2013).
Entries after “also recorded” stand apart in the source; their conditions may differ. Each block holds one substance with its values, some of them ahead of it.

Legend:
[1] = test system: rat smooth muscle cells (PAC1); assay: Glucose uptake in PAC1 cells (IGF-dependent); assay type: cell-based
Description: Glucose uptake was tested as described infra. Cells were starved in low glucose serum-depleted DMEM for 20 hours prior to transfer to PBS containing CaCl2, MgCl2. After 2 hrs myristoylated peptides were added to the medium for 2 hours. Thereafter, IGF-1 (50 ng/ml) or insulin (100 nM) was added (10 min) and glucose uptake was tested for 3 min in the presence of methyl-D-glucose,3-O-[methyl-3H]. Subsequently cells were washed 3 times in cold PBS and solubilized in NaOH (0.05 mM). Aliquots were measured for radioactivity. Non-specific binding or diffusion were tested by addition of 300 mM glucose to the cells. This value was deducted from the total counts (on the average <20%) and results were normalized for protein concentration.
(§1) FIGS. 15A-B show the effect of hBVR-based peptides on IGF-dependent glucose uptake in rat smooth muscle cells (PAC1) (FIG. 15A) and insulin-dependent glucose uptake in human epithelial kidney (HEK) cells (FIG. 15B). Cells were treated as described for FIG. 14 and glucose uptake was measured as described infra.
(§2) The therapeutic utility of various BVR peptides with regard to their ability to modify insulin and insulin growth factor (IGF) mediated cellular glucose uptake was evaluated. Human embryonic kidney cells (HEK293) or rat aortic smooth muscle cells (PAC) were starved in low glucose serum-depleted DMEM for twenty hours prior to transfer to PBS containing CaCl2, MgCl2. After two hours, myristoylated peptides were added to the medium for two additional hours. Thereafter, IGF-1 (50 ng/ml) or insulin (100 nM) was added (10 min) and glucose uptake was tested for three minutes in the presence of methyl-D-glucose,3-O-[methyl-3H]. Subsequently, cells were washed three times in cold PBS and solubilized in NaOH (0.05 mM). Aliquots were measured for radioactivity. Non-specific binding or diffusion was tested by addition of 300 mM glucose to the cells. This value was deducted from the total counts (on the average <20%) and results were normalized for protein concentration.

[2] = Blood glucose levels after tail vein injection; assay type: in vivo; details: Sprague Dawley rats, 11 μg/g body weight, measured at 20, 40, 60, 100 min
Description: FIG. 16 is a graph illustrating the blood glucose levels measured over time course following tail vein injection to Sprague Dawley rats of the KKRILHC (SEQ ID NO: 60) peptide in solution (11 μg/g body weight) or a vehicle control solution.
In an experiment designed to evaluate the ability of the C-terminal KKRILHC BVR peptide fragment (SEQ ID NO: 60) to modulate insulin signaling and blood glucose levels, Sprague Dawley rats were administered, via tail vein injection, the KKRILHC peptide (SEQ ID NO: 60) in solution (11 μg/g body weight) or a vehicle control solution. […] This increase in blood glucose levels was at 20, 40, and 60 minutes following administration, gradually decreasing over the 100 minute time course of assessment.

[3] = test system: human epithelial kidney (HEK) cells; assay: Insulin-dependent glucose uptake in HEK cells; assay type: cell-based; details: myristoylated peptide 2 h, then insulin 100 nM 10 min
Description: as §1, §2

IRK = biological target: T1, IRK (Homo sapiens, UniProt P06213); assay: IRK autophosphorylation in the presence of hBVR-derived peptides; assay type: biochemical; details: 20 μM myristoylated hBVR-based peptide, 45 min, purified IRK
T1 construct: the intracellular kinase domain of the insulin receptor; purchased Biomol International (Plymouth, Pa.)
T1 sequence (P06213 980-1382 limits assumed): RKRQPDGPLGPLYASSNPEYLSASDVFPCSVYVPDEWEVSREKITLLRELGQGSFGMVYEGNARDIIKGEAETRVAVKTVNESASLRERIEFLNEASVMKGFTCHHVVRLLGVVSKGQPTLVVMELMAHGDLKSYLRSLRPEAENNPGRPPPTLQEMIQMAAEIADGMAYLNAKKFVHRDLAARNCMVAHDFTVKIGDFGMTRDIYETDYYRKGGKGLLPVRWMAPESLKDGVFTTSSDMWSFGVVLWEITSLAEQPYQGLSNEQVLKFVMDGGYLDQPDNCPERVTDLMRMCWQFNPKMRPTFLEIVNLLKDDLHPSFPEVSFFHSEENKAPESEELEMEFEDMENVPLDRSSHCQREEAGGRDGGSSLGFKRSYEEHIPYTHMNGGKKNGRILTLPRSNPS
Description: FIGS. 13A-B show the effect of hBVR-derived peptides on autophosphorylation of IRK (FIG. 13A) and IRK kinase activity (FIG. 13B). Purified IRK was incubated in the absence or presence of 20 μM of the identified myristoylated hBVR-based peptides for 45 min in an assay system containing 50 mM Hepes pH 7.4, 20 mM MCl2,1 mM EGTA and 20 μM ATP labeled with 5 uCi gamma-P32-ATP. The reaction was stopped with the addition of phosphoric acid and aliquots were applied to P81 Whatman filters. Filters were extensively washed and subjected to counting in a scintillation counter. Total counts of radioactivity of each sample were corrected for non specific binding. […] Activity of IRK toward its substrate, IRS peptide, was tested in the presence of hBVR-based peptides. Experiments were conducted as in described for FIG. 13A with addition of IRS peptide as the substrate.
The effect of hBVR-derived peptides on autophosphorylation of IRK (FIG. 13A) and IRK kinase activity (FIG. 13B) was also investigated.

BVR [4] = assay: BVR tyrosine phosphorylation in insulin-treated 293A cells (immunoprecipitation/immunoblot); assay type: cell-based, human; details: within 8 min after insulin treatment
Description: FIG. 12A-D illustrates that “knock-down” BVR and Y^198 detection increased glucose uptake into 293A cells upon insulin induction. As shown in the graph of FIG. 12A, insulin treatment increases BVR activity. 293A cells were treated with insulin (50 nM) and subsequently used at indicated time points for BVR activity measurement. […] Purified BVR was phosphorylated by IRK for the indicated periods. Reactions were terminated by diluting with PBS and freezing at −20° C. BVR activity was determined as in FIG. 12A, and normalized to that of the control (43.8 μmol per min per mg). […] 293A cells were incubated with insulin and after 8 min or 30 min, subjected to immunoprecipitation using anti-human BVR antibodies. The phosphorylated BVR was visualized by immunoblotting using anti-tyrosine antibodies. ECL system was used for visualization of phosphorylated BVR. In FIG. 12D, the effect of insulin treatment on glucose uptake cells infected with siBVR or Y^198 mutant BVR were treated with insulin for 15 min and subsequently incubated in 1 ml PBS containing 5 mM glucose and 1 μCi/ml-2-deoxy-1 [^3H] glucose (2DG) for 15 min. Cells were washed with cold PBS and lysed by addition of 1% (w/v) SDS to each well. […]
293A Cells were plated in 10 cm plates and transfected with appropriate plasmids. […] Protein concentration was determined by Bradford assay (Bio-Rad, Hercules, Calif.). […]

BVR [5] = assay: BVR reductase activity in insulin-treated 293A cells; assay type: cell-based, human; details: insulin 50 nM, measured 1 h after treatment
Description: FIG. 12A-D illustrates that “knock-down” BVR and Y^198 detection increased glucose uptake into 293A cells upon insulin induction. As shown in the graph of FIG. 12A, insulin treatment increases BVR activity. 293A cells were treated with insulin (50 nM) and subsequently used at indicated time points for BVR activity measurement. […] Purified BVR was phosphorylated by IRK for the indicated periods. Reactions were terminated by diluting with PBS and freezing at −20° C. BVR activity was determined as in FIG. 12A, and normalized to that of the control (43.8 μmol per min per mg). […] 293A cells were incubated with insulin and after 8 min or 30 min, subjected to immunoprecipitation using anti-human BVR antibodies. The phosphorylated BVR was visualized by immunoblotting using anti-tyrosine antibodies. ECL system was used for visualization of phosphorylated BVR. […]
293A cells treated with insulin were lysed in buffer containing a protease inhibitor cocktail and phosphatase inhibitors (10 mM NaF, 1 mM NaVO4). BVR activity was measured at pH 6.7 using NADH as the cofactor as described previously (Huang et al., J. Biol. Chem. 264:7844-9 (1989), which is hereby incorporated by reference in its entirety). The rate of conversion of biliverdin to bilirubin was determined as the increase in absorbance at 450 nm at 25° C. Specific activity is expressed as μmol of bilirubin/min/mg of protein.

Substance: KKRILHC (Biliverdin reductase derived peptide) [hBVR peptide, amino acids 275-281 of BVR]
- IGF-mediated cellular glucose uptake in PAC1 cells ([1]; myristoylated peptide 2 h, then IGF-1 50 ng/ml 10 min): inhibit IGF-mediated cellular glucose uptake
- blood glucose levels compared to vehicle controls [2]: immediate increase in the blood glucose levels
- insulin mediated cellular glucose uptake in HEK cells [3]: antagonizing insulin mediated cellular glucose uptake

- IRK autophosphorylation (IRK): increases IRK autophosphorylation
Substance: KYCCSRK (Biliverdin reductase derived peptide) [C-terminal hBVR peptide, amino acids 290-296 of BVR; mimics insulin signaling]
- effectiveness in enhancing cellular glucose uptake compared with IGF-1 ([1]; PAC1 cells, IGF-1 50 ng/ml): as effective as IGF-1
- cellular glucose uptake in PAC1 cells ([1]; myristoylated peptide 2 h, uptake of methyl-D-glucose,3-O-[methyl-3H] for 3 min): enhances cellular glucose uptake in PAC1 cells in a dose-dependent manner; also recorded: increases glucose uptake in PAC1 cells in a concentration dependent manner

Substance: insulin: Human insulin purchased from Sigma-Aldrich
- BVR tyrosine phosphorylation (BVR [4]): dramatic increase in phosphorylation
- increase in BVR reductase activity (BVR [5]): 2 fold
